biological target: D(4) dopamine receptor (Homo sapiens) (UniProt P21917); assay: antagonism of human DRD4 receptor – cell-based, confirmation (AID 743372); conditions: cells expressing human D4 receptor, antagonist mode

Compared with `Clc1ccc(CN2CCO[C@H](CCc3ccccc3)C2)cc1`, `Clc1ccc(CN2CCOC(CCc3ccccc3)C2)cc1` (stereo unspecified) is 2.2-fold higher in IC50: 130 nM for the first, 290 nM for the second.

`FC(F)(F)Oc1ccc(CN2CCOC(CCc3ccccc3)C2)cc1` (stereo unspecified) and `FC(F)(F)Oc1ccc(CN2CCO[C@H](CCc3ccccc3)C2)cc1` are within 1.5-fold of each other in IC50: 160 nM for the first, 230 nM for the second.

Going from `Cc1ccccc1CN1CCOC(CCc2ccccc2)C1` (stereo unspecified) to `c1ccc(CCC2CN(Cc3ccccc3)CCO2)cc1` (stereo unspecified), the IC50 falls from 3680 nM to 1480 nM (2.5-fold). The second is the more potent here.

Compared with `Fc1ccc(CN2CCOC(CCc3ccccc3)C2)cc1` (stereo unspecified), `COc1ccc(CN2CCO[C@@H](CCc3ccccc3)C2)cc1` is 11-fold lower in IC50: 1140 nM for the first, 100 nM for the second.

Going from `FC(F)(F)Oc1cccc(CN2CCOC(CCc3ccccc3)C2)c1` (stereo unspecified) to `COc1ccc(CN2CCOC(CCc3ccccc3)C2)cc1` (stereo unspecified), the IC50 falls from 390 nM to 170 nM (2.3-fold).

With `Fc1cccc(F)c1CN1CCOC(CCc2ccccc2)C1` (stereo unspecified) the IC50 was 3880 nM.
